Measured values published in publication PMC8617031, “Development of a BCL-xL and BCL-2 dual degrader with improved anti-leukemic activity,” (Nature Communications, 2021).
Where “and” joins values, the source holds several entries; their conditions need not be identical. Equal values may be shown once.

Columns and labels:
[1] = target: T1, BCL-2/PROTAC/VCB ternary complex (Homo sapiens, UniProt P10415+P40337); test: AlphaLISA ternary complex formation, cell-free, BCL-2; format: binding; conditions: for Alpha (Alpha Endpoint read, Bcl-2 ternary complex formation): raw plate signal, duplicate wells; for AlphaLISA signal, BCL-2/PROTAC/VCB: Fig. 2d raw Alpha reads
T1 construct: pGEX-6P-1-VHL(54-213) (pDL2200) was constructed through Gibson assembly method; made in house; host or cells: bacterial culture (LB broth, IPTG induction)
T1 sequence (P10415 1-211 limits assumed): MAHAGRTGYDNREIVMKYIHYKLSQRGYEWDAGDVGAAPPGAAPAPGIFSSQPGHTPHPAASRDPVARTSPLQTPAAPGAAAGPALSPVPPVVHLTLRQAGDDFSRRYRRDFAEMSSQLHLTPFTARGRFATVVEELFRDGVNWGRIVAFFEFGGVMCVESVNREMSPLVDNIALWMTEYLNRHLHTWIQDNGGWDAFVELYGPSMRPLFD
T1 sequence (P40337 54-213 limits assumed): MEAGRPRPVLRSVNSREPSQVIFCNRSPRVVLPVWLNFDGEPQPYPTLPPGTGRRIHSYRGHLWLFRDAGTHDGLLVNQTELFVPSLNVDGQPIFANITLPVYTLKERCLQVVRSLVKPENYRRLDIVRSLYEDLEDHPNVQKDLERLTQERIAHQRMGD
T1 sequence (Q15369 17-112 partner limits assumed): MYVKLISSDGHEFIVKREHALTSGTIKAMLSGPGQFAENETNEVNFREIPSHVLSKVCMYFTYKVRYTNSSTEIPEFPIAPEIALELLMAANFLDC
T1 sequence (Q15370 whole entry partner): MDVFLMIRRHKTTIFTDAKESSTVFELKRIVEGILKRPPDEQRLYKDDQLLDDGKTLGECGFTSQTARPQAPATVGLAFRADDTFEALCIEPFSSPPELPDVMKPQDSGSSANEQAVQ
Summary of the method: (§1)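 Cell-free AlphaLISA: 5 nM His-tagged BCL-xL or BCL-2 plus 5 nM GST-VCB incubated with fourfold serially diluted compound 30 min at room temperature. Glutathione donor and His acceptor beads (20 µg/ml each) then added for 15 and 45 min; AlphaLISA signal plotted against compound concentration.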

[2] = target: T2, BCL-xL (Homo sapiens, UniProt Q07817); test: BCL-xL degradation by immunoblot in 293T cells; format: cell-based
T2 construct: endogenous in cells
T2 sequence (Q07817 whole entry): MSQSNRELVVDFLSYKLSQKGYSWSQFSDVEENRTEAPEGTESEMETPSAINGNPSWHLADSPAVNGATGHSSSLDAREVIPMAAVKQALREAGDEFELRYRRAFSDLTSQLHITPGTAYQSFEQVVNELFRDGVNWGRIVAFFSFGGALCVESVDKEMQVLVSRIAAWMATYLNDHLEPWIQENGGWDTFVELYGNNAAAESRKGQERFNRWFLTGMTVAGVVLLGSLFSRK
Summary of the method: (§2)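 DC50 and Dmax come from densitometry of western blots of treated 293T cells, normalized to β-actin, mean of 3 independent experiments. Lysates in RIPA, 20–40 μg loaded per lane, HRP chemiluminescence read-out.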

[3] = target: T3, BCL-xL/PROTAC/VHL-ELOC-ELOB (VCB) ternary complex (Homo sapiens, UniProt P40337+Q07817); test: AlphaLISA ternary complex formation, cell-free, BCL-xL; format: binding
T3 construct: pGEX-6P-1-VHL(54-213) (pDL2200) was constructed through Gibson assembly method; made in house; host or cells: bacterial culture (LB broth, IPTG induction)
T3 sequence (Q07817 1-212 limits assumed): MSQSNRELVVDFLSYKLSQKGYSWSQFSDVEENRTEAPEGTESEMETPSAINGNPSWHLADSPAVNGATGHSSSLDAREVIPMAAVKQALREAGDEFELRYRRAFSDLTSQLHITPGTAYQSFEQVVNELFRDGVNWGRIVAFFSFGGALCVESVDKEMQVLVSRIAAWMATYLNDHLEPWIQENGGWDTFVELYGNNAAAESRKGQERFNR
T3 sequence (P40337 54-213 limits assumed): as the sequence (P40337 54-213 limits assumed) above
T3 sequence (Q15369 17-112 partner limits assumed): as the sequence (Q15369 17-112 partner limits assumed) above
T3 sequence (Q15370 whole entry partner): as the sequence (Q15370 whole entry partner) above
Summary of the method: as §1

[4] = target: T4, BCL-2 (Homo sapiens, UniProt P10415); test: BCL-2 degradation by immunoblot in 293T cells; format: cell-based
T4 construct: endogenous in cells
T4 sequence (P10415 whole entry): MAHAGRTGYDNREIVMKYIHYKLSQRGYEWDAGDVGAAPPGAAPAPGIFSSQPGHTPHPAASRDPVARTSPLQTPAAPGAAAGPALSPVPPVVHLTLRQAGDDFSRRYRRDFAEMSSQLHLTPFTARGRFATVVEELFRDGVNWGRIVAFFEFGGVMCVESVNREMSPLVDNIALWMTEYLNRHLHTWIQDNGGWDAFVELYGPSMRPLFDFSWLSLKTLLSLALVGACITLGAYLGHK
Summary of the method: as §2

With `Cc1ncsc1-c1ccc([C@H](C)NC(=O)[C@@H]2C[C@@H](O)CN2C(=O)[C@@H](NC(=O)CCCCCC(=O)N2CCN(CC[C@H](CSc3ccccc3)Nc3ccc(S(=O)(=O)NC(=O)c4ccc(N5CCN(CC6=C(c7ccc(Cl)cc7)CCC(C)(C)C6)CC5)cc4)cc3S(=O)(=O)C(F)(F)F)CC2)C(C)(C)C)cc1` [DT2216] the “Alpha (Alpha Endpoint read, Bcl-2 ternary complex formation)” value ([1]; Conc. 0.0762939 nM) was 20813 and 18426, the “Alpha (Alpha Endpoint read, Bcl-2 ternary complex formation)” value ([1]; Conc. 0.305176 nM) was 25167 and 44180 and the “Alpha (Alpha Endpoint read, Bcl-2 ternary complex formation)” value ([1]; Conc. 1.2207 nM) was 134706 and 124477. For the same compound, the “Alpha (Alpha Endpoint read, Bcl-2 ternary complex formation)” value ([1]; Conc. 4.88281 nM) was 167974 and 147424, the “Alpha (Alpha Endpoint read, Bcl-2 ternary complex formation)” value ([1]; Conc. 19.5312 nM) was 637139 and 671757 and the “Alpha (Alpha Endpoint read, Bcl-2 ternary complex formation)” value ([1]; Conc. 78.125 nM) was 1569627 and 1815622. The “Alpha (Alpha Endpoint read, Bcl-2 ternary complex formation)” value ([1]; Conc. 312.5 nM) was 1851330 and 1734079, the “Alpha (Alpha Endpoint read, Bcl-2 ternary complex formation)” value ([1]; Conc. 1250 nM) was 970107 and 1023464 and the “Alpha (Alpha Endpoint read, Bcl-2 ternary complex formation)” value ([1]; Conc. 5000 nM) was 185911 and 171854. The “Alpha (Alpha Endpoint read, Bcl-2 ternary complex formation)” value ([1]; Conc. 20000 nM) was 15128 and 13041, the “AlphaLISA signal, BCL-2/PROTAC/VCB” value ([1]; compound 0.191 nM) was 15777 and 15419 and the “AlphaLISA signal, BCL-2/PROTAC/VCB” value ([1]; compound 0.763 nM) was 15170 and 18328. The “AlphaLISA signal, BCL-2/PROTAC/VCB” value ([1]; compound 3.052 nM) was 22062 and 18311, the “AlphaLISA signal, BCL-2/PROTAC/VCB” value ([1]; compound 12.207 nM) was 69812 and 70261 and the “AlphaLISA signal, BCL-2/PROTAC/VCB” value ([1]; compound 48.828 nM) was 478226 and 503248. The “AlphaLISA signal, BCL-2/PROTAC/VCB” value ([1]; compound 195.31 nM) was 862665 and 765838, the “AlphaLISA signal, BCL-2/PROTAC/VCB” value ([1]; compound 781.25 nM) was 770133 and 699715 and the “AlphaLISA signal, BCL-2/PROTAC/VCB” value ([1]; compound 3125 nM) was 392514 and 467832. The “AlphaLISA signal, BCL-2/PROTAC/VCB” value ([1]; compound 12500 nM) was 47038 and 50161, the “AlphaLISA signal, BCL-2/PROTAC/VCB” value ([1]; compound 50000 nM) was 7988 and 8322 and the “AlphaLISA signal, BCL-2/PROTAC/VCB” value ([1]; compound 200000 nM, 2 technical replicates) was 7003 and 7472. The DC50 ([2]; 293T cells, four concentrations, 16 h, Fig. 2b, read-out: BCL-xL DC50) was 20.3 nM, the Dmax ([2]; HEK-293T) was 92% and the “AlphaLISA signal, BCL-xL/PROTAC/VCB” value ([3]; compound 0.19 nM, Fig. 3e raw Alpha reads) was 24660 and 20115. For the same compound, the “AlphaLISA signal, BCL-xL/PROTAC/VCB” value ([3]; compound 0.191 nM, Fig. 2c raw Alpha reads) was 16719 and 10405, the “AlphaLISA signal, BCL-xL/PROTAC/VCB” value ([3]; compound 0.76 nM, Fig. 3e raw Alpha reads) was 36507 and 38317 and the “AlphaLISA signal, BCL-xL/PROTAC/VCB” value ([3]; compound 0.763 nM, Fig. 2c raw Alpha reads) was 18311 and 16968. The “AlphaLISA signal, BCL-xL/PROTAC/VCB” value ([3]; compound 3.05 nM, Fig. 3e raw Alpha reads) was 66449 and 60221, the “AlphaLISA signal, BCL-xL/PROTAC/VCB” value ([3]; compound 3.052 nM, Fig. 2c raw Alpha reads) was 25910 and 22328 and the “AlphaLISA signal, BCL-xL/PROTAC/VCB” value ([3]; compound 12.207 nM, Fig. 2c raw Alpha reads) was 86818 and 83277. The “AlphaLISA signal, BCL-xL/PROTAC/VCB” value ([3]; compound 12.21 nM, Fig. 3e raw Alpha reads) was 409606 and 406374, the “AlphaLISA signal, BCL-xL/PROTAC/VCB” value ([3]; compound 48.828 nM, Fig. 2c raw Alpha reads) was 487236 and 509576 and the “AlphaLISA signal, BCL-xL/PROTAC/VCB” value ([3]; compound 48.83 nM, Fig. 3e raw Alpha reads) was 1004765 and 1011127. For the same compound, the “AlphaLISA signal, BCL-xL/PROTAC/VCB” value ([3]; compound 195.31 nM, Fig. 2c raw Alpha reads) was 1016591 and 916263, the “AlphaLISA signal, BCL-xL/PROTAC/VCB” value ([3]; compound 195.31 nM, Fig. 3e raw Alpha reads) was 1443448 and 1418663 and the “AlphaLISA signal, BCL-xL/PROTAC/VCB” value ([3]; compound 781.25 nM, Fig. 2c raw Alpha reads) was 880317 and 910855. The “AlphaLISA signal, BCL-xL/PROTAC/VCB” value ([3]; compound 781.25 nM, Fig. 3e raw Alpha reads) was 1065855 and 975587, the “AlphaLISA signal, BCL-xL/PROTAC/VCB” value ([3]; compound 3125 nM, Fig. 2c raw Alpha reads) was 660864 and 590073 and the “AlphaLISA signal, BCL-xL/PROTAC/VCB” value ([3]; compound 3125 nM, Fig. 3e raw Alpha reads) was 557160 and 572089. For the same compound, the “AlphaLISA signal, BCL-xL/PROTAC/VCB” value ([3]; compound 12500 nM, Fig. 2c raw Alpha reads) was 241490 and 226854, the “AlphaLISA signal, BCL-xL/PROTAC/VCB” value ([3]; compound 12500 nM, Fig. 3e raw Alpha reads) was 200468 and 154034 and the “AlphaLISA signal, BCL-xL/PROTAC/VCB” value ([3]; compound 50000 nM, Fig. 2c raw Alpha reads) was 34465 and 29535. For the same compound, the “AlphaLISA signal, BCL-xL/PROTAC/VCB” value ([3]; compound 50000 nM, Fig. 3e raw Alpha reads, 2 technical replicates) was 37331 and 41699, the “AlphaLISA signal, BCL-xL/PROTAC/VCB” value ([3]; compound 200000 nM, Fig. 2c raw Alpha reads, 2 technical replicates) was 19406 and 20996 and the “BCL-2 degradation (in words)” value ([4]; 293T cells, 16 h) was “did not induce BCL-2 degradation”. The Dmax ([4]; HEK-293T) was 0%.
